Read-outs that look alike come from different tables or passages of the source.
What was measured:
caspase-1 = biological target: T1, caspase-1 (Homo sapiens, UniProt P29466); test: Caspase inhibition assay, second-order inactivation rate; type: biochemical; details: caspase-1, text; read-out: second order inactivation rate constant (k)
T1 construct: Active recombinant caspase-1, -3, -4, -7 and -8 were prepared as described previously; made in house
Description: (§1) Active recombinant caspase-1, -3, -4, -7 and -8 were prepared as described previously. Caspase-2 was purchased from Biomol (Exeter, UK), caspase-6 from BD Biosciences (Oxford, UK), caspase-9 from Europa Bioproducts Ltd. (Cambridge, UK) and caspase-10 from Chemicon International Inc. (Harrow, UK). Cathepsin B and granzyme B were purchased from Merck Biosciences Ltd. (Nottingham, UK). Fluorogenic protease substrates were purchased from Bachem Ltd. (St. Helens, UK). All reactions were carried out at 37°C using a Molecular Devices (Wokingham, UK) Gemini plate-reader at 460 nm (excitation wavelength of 390 nm). Caspase inhibition assays were conducted, with minor modifications, as described by Margolin and colleagues. Irreversible kinetics were analysed by calculations of second-order inactivation rate constants (k) using GraphPad (La Jolla, CA, USA) Prism 4.0 software. A larger number for an inactivation rate constant indicates a greater degree of inactivation. To determine the inhibitory effect on cathepsin B, 4.25 nM of the enzyme were added to 250 μM z-RR-AMC in 10 mM 2-morpholino-ethanesulfonic acid pH 6.0, 1 mM DTT, 1 mM EDTA and 0.03% Brij35 in the presence or absence of VX-166 and the reaction monitored continuously over 15 minutes. Granzyme B was assayed, with minor modifications, as described by Thornberry and colleagues. Additional counterscreening against a panel of 83 additional enzymes, ion channels and receptors was carried out at MDS Pharma Services (Bothell, WA, USA).

caspase-10 = biological target: T2, caspase-10 (Homo sapiens, UniProt Q92851); test: as above; type: biochemical; details: recombinant caspase-10, 37°C, n = 4; read-out: Second order inactivation rate constant K
T2 construct: purchased Chemicon International Inc. (Harrow, UK)
T2 sequence (Q92851 220-521): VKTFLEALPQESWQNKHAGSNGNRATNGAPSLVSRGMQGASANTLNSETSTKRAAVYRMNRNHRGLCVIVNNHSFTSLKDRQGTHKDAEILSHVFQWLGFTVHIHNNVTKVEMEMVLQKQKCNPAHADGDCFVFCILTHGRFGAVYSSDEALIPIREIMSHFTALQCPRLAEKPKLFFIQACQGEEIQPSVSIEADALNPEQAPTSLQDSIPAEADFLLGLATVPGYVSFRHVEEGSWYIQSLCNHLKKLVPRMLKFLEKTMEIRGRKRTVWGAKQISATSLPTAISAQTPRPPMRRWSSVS
Description: as §1

caspase-2 = biological target: T3, caspase-2 (Homo sapiens, UniProt P42575); test: as above; type: biochemical
T3 construct: purchased Biomol (Exeter, UK)
T3 sequence (P42575 whole entry): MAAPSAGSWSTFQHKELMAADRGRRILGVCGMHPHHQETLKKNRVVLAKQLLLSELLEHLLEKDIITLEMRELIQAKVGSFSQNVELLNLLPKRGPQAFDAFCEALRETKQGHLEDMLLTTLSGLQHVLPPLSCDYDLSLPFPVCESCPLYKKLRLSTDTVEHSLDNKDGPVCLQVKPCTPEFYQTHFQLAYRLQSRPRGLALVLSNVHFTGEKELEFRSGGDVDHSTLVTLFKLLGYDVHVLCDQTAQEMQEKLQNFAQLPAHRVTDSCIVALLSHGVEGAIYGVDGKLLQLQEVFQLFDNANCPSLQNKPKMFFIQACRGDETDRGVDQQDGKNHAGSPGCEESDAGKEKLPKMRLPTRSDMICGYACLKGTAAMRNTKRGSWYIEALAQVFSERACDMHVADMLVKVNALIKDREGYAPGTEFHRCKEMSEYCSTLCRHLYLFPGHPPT
Description: as §1

caspase-3 = biological target: T4, caspase-3 (Homo sapiens, UniProt P42574); test: as above; type: biochemical
T4 construct: Active recombinant caspase-1, -3, -4, -7 and -8 were prepared as described previously; made in house
T4 sequence (P42574 29-175 limits assumed): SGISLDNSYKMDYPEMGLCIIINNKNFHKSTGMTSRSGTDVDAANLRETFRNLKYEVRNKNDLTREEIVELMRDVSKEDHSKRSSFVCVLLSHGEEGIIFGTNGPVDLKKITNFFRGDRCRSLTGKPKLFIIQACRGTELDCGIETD
T4 sequence (P42574 176-277 limits assumed): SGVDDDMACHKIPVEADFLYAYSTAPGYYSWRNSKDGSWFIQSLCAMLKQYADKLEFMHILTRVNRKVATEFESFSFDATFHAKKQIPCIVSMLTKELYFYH
Description: as §1

caspase-4 = biological target: T5, caspase-4 (Homo sapiens, UniProt P49662); test: as above; type: biochemical; details: recombinant caspase-4, 37°C, n = 4; read-out: Second order inactivation rate constant K
T5 construct: Active recombinant caspase-1, -3, -4, -7 and -8 were prepared as described previously; made in house
T5 sequence (P49662 81-270 limits assumed): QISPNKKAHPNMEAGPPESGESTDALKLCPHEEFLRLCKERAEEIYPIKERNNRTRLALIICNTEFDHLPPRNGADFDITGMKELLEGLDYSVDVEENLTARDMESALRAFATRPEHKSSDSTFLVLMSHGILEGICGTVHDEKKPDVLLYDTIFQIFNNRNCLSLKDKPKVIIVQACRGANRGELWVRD
T5 sequence (P49662 290-377 limits assumed): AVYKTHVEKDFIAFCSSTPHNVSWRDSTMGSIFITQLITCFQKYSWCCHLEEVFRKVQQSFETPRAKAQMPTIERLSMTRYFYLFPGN
Description: as §1

caspase-6 = biological target: T6, caspase-6 (Homo sapiens, UniProt P55212); test: as above; type: biochemical; details: recombinant caspase-6, 37°C, n = 4; read-out: Second order inactivation rate constant K
T6 construct: purchased BD Biosciences (Oxford, UK)
T6 sequence (P55212 24-293): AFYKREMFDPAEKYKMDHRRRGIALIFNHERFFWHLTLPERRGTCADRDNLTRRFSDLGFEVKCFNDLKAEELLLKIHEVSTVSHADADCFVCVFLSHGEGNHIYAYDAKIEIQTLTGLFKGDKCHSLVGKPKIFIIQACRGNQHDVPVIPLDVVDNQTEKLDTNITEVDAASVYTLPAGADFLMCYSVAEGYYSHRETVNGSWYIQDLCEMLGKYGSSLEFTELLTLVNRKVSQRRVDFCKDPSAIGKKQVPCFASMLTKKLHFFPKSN
Description: as §1

caspase-7 = biological target: T7, caspase-7 (Homo sapiens, UniProt P55210); test: as above; type: biochemical; details: recombinant caspase-7, 37°C, n = 4; read-out: Second order inactivation rate constant K
T7 construct: Active recombinant caspase-1, -3, -4, -7 and -8 were prepared as described previously; made in house
T7 sequence (P55210 24-198 limits assumed): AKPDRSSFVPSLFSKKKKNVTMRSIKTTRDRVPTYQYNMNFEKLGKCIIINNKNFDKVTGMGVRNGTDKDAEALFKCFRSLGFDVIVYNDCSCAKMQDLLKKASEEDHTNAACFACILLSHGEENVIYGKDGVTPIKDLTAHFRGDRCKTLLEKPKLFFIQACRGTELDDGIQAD
T7 sequence (P55210 207-303 limits assumed): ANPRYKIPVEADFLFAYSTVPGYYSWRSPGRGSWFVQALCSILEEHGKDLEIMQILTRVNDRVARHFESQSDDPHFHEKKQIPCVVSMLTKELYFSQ
Description: as §1

caspase-8 = biological target: T8, caspase-8 (Homo sapiens, UniProt Q14790); test: as above; type: biochemical; details: recombinant caspase-8, 37°C, n = 4; read-out: Second order inactivation rate constant K
T8 construct: Active recombinant caspase-1, -3, -4, -7 and -8 were prepared as described previously; made in house
T8 sequence (Q14790 217-374 limits assumed): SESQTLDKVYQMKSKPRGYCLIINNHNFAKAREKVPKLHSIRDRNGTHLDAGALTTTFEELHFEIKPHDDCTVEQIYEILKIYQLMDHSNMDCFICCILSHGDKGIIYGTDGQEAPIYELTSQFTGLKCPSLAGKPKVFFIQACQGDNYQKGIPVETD
T8 sequence (Q14790 385-479 limits assumed): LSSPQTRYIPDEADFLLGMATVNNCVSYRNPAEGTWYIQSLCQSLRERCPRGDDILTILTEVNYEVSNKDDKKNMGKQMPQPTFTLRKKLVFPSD
Description: as §1

caspase-9 = biological target: T9, caspase-9 (Homo sapiens, UniProt P55211); test: as above; type: biochemical; details: recombinant caspase-9, 37°C, n = 4; read-out: Second order inactivation rate constant K
T9 construct: purchased Europa Bioproducts Ltd. (Cambridge, UK)
T9 sequence (P55211 whole entry): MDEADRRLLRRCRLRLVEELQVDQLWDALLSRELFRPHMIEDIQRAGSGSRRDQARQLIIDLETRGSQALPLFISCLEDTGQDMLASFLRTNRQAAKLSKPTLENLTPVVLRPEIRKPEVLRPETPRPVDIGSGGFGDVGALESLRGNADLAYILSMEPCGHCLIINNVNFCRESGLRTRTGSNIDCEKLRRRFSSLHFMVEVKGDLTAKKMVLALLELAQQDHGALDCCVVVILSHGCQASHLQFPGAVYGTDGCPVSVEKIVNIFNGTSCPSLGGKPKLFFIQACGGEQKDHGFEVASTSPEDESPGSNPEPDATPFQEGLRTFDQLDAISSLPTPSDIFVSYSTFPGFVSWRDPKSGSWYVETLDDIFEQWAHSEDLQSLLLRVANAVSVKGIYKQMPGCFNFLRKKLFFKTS
Description: as §1

granzyme B = biological target: T10, granzyme B (Homo sapiens, UniProt P10144); test: Granzyme B counter-screen; type: biochemical; details: at 50 μM
T10 construct: purchased Merck Biosciences Ltd. (Nottingham, UK)
T10 sequence (P10144 21-247, species assumed): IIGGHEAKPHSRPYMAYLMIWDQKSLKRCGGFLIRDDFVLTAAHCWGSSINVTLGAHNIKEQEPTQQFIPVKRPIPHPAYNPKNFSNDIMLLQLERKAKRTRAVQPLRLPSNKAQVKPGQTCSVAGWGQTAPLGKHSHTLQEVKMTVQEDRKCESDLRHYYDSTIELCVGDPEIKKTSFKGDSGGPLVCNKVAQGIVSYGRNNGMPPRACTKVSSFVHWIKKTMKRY
Description: as §1, with “Additional counterscreening against a panel of 83 additional enzymes, ion channels and receptors was carried out at MDS Pharma Services (Bothell, WA, USA).” left out

Jurkat cells [1] = test: TNF-α/cycloheximide induced apoptosis in Jurkat cells, Annexin V; type: cell-based; details: Human Jurkat cell line/Annexin V, n = 4, read-out: IC50, inhibition of apoptosis
Description: (§2) Jurkat cells were obtained from LGC Standards (Teddington, UK) and were grown in RPMI 1640, 10% FCS, 2 mM L-glutamine, 100 U/ml penicillin and 0.1 mg/ml streptomycin (all from Sigma Aldrich Ltd., Poole, UK) at 37°C in 5% CO2/95% humidity. Receptor- or stress-mediated apoptosis (2 × 10^5 cells/ml) was induced by addition of either anti-Fas antibody CH-11 (10 ng/ml, Millipore UK Ltd., Watford, UK), TNF-α (20 ng/ml, R&D Systems, Abingdon, UK) with cycloheximide (112 ng/ml, Sigma Aldrich Ltd., Poole, UK) or staurosporine (350 ng/ml, Sigma Aldrich Ltd., Poole, UK). VX-166 was diluted into DMSO (10 mM), further diluted in media and added at a range of concentrations. Cells were then incubated for 18 hours. Apoptotic cells were then labelled with Cy5-conjugated Annexin-V (BD Biosciences, Oxford, UK) and detected using a FMAT™ 8100 Fluorimetric Microassay Technology Reader (Applied Biosystems, Warrington, UK). For the experiments using anti-Fas antibody, apoptosis was additionally measured using a Cell Death Detection ELISA kit (Roche Diagnostics Ltd., Lewes, UK) following the manufacturer's instructions.

Jurkat cells [2] = test: Staurosporine induced apoptosis in Jurkat cells, Annexin V; type: cell-based; details: Human Jurkat cell line/Annexin V, n = 4, read-out: IC50, inhibition of apoptosis
Description: as §2

[3] = tested on: IL-18 release from peripheral blood mononuclear cells; test: IL-18 release from SAC-treated PBMC; type: cell-based; details: overnight
Description: Peripheral blood mononuclear cells (PBMC) from healthy donors were isolated by Ficoll-Paque gradient centrifugation from buffy coats obtained from the National Blood Transfusion Service (Bristol, UK). For IL-1β release, 5 × 10^5 cells/ml were then stimulated with 50 ng/ml lipopolysaccharide (LPS) from Escherichia coli (Sigma-Aldrich Ltd., Poole, UK) in the presence or absence of VX-166 and incubated for 18 hours. Secretion of IL-1β into the supernatant was determined by ELISA (R&D Systems, Abingdon, UK) following the manufacturer's instructions. For IL-18 release, 7.5 × 10^5 cells/ml were stimulated with 6.25 × 10^-4% (w/v) Staphylococcus aureus cell suspension (SAC; Sigma-Aldrich Ltd., Poole, UK) in the presence or absence of VX-166 and incubated overnight. The IL-18 content in the supernatants was quantified by ELISA (Caltag-MedSystems Ltd., Buckingham, UK) following the manufacturer's instructions. In both assays PBMC viability was assessed after the 18 hours incubation time using MTS assay (Promega UK Ltd., Southampton, UK) to ensure that the reduction in cytokine release was not caused by a cytotoxic effect of the compound.

[4] = read-out: Second order inactivation rate constant K

T1 sequence (P29466 120-297 limits assumed): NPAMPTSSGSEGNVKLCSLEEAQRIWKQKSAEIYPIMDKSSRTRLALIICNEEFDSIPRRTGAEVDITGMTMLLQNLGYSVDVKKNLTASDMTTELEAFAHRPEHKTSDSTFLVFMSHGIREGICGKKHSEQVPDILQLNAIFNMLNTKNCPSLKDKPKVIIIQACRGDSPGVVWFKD
T1 sequence (P29466 317-404 limits assumed): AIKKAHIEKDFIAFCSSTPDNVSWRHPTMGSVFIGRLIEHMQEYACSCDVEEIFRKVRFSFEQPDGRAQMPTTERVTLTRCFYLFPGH

## CCC(C(=O)NC(CC(=O)O)C(=O)COc1c(F)c(F)cc(F)c1F)n1cccc(NC(=O)OC)c1=O (stereo not shown) [VX-166]
caspase-1
  kinact/KI: > 1e+06 M⁻¹ s⁻¹
caspase-10
  kinact/KI: 49000 ± 3800 M⁻¹ s⁻¹
caspase-2; caspase-2, text, read-out: second order inactivation rate constant (k)
  kinact/KI: 6000 M⁻¹ s⁻¹
caspase-2; [4]
  kinact/KI: 6190 ± 510 M⁻¹ s⁻¹
caspase-3; caspase-3, text, read-out: second order inactivation rate constant (k)
  kinact/KI: > 1e+06 M⁻¹ s⁻¹
caspase-3; [4]
  kinact/KI: 1.17e+06 ± 183000 M⁻¹ s⁻¹
caspase-4
  kinact/KI: 480000 ± 32000 M⁻¹ s⁻¹
caspase-6
  kinact/KI: 77000 ± 3000 M⁻¹ s⁻¹
caspase-7
  kinact/KI: 526000 ± 1500 M⁻¹ s⁻¹
caspase-8
  kinact/KI: 194000 ± 52000 M⁻¹ s⁻¹
caspase-9
  kinact/KI: 131000 ± 21000 M⁻¹ s⁻¹
Granzyme B
  inhibitory activity against granzyme B: did not show any inhibitory activity
Jurkat cells [1]
  IC50: 120 ± 50 nM
Jurkat cells [2]
  IC50: 255 ± 155 nM
[3]; Homo sapiens, PBMC, n = 4, read-out: IC50 ± SD, inhibition of IL-18 release
  IC50: < 500 nM
[3]; SAC-treated human PBMC, n = 4, read-out: IC50 ± SD, inhibition of IL-18 release
  IC50: 450 ± 170 nM
